From paper PMC3891835 (American journal of obstetrics and gynecology, 2012)
Structures can show the parent of a compound that is named as a salt.

What was measured:
[1] = cited from earlier work
P-glycoprotein (P-gp) [2] = molecular target: T1, P-glycoprotein (P-gp) (Homo sapiens, UniProt P08183); test: biochemical
P-glycoprotein (P-gp) [3] = molecular target: T1, P-glycoprotein (P-gp); settings: placental IOV; concentration range tested 100 to 1000 μM; 40 nM [3H]-paclitaxel

T1 sequence (P08183 whole entry): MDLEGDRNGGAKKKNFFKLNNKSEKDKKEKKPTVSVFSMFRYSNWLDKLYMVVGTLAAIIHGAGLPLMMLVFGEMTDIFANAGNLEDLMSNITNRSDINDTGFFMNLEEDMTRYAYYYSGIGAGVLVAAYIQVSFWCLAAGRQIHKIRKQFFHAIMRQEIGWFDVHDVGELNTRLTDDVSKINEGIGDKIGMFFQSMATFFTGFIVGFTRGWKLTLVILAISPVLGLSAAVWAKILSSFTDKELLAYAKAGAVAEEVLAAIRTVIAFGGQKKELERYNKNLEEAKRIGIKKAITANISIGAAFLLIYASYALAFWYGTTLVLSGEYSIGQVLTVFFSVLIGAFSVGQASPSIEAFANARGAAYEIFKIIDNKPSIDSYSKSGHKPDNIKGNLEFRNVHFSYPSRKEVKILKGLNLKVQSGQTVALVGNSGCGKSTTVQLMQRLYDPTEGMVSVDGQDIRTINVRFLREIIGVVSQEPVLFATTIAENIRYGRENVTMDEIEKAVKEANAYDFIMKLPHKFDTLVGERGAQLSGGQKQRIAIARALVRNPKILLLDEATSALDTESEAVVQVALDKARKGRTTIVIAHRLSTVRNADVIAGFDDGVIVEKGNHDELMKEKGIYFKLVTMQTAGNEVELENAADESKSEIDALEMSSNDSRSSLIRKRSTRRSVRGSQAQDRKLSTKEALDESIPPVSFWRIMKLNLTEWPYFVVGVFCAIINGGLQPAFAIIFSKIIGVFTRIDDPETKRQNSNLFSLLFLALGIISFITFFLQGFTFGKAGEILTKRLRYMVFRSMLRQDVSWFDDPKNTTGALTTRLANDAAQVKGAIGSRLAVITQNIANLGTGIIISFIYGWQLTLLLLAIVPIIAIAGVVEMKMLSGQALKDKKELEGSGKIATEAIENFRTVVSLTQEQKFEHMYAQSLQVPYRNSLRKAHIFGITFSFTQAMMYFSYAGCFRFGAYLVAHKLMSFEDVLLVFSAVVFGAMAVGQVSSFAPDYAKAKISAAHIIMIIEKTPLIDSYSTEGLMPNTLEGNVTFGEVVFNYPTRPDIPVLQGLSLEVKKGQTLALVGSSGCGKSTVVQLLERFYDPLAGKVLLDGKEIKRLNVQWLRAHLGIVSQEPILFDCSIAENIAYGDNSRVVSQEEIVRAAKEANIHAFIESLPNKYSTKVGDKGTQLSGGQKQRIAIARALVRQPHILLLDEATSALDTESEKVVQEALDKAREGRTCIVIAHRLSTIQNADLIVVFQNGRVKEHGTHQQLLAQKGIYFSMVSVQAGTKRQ

SMILES | binding to proteins [1] [%] | IC50 (P-glycoprotein (P-gp) [2]) [µM] | effect on the ATP-dependent uptake of [3H]-paclitaxel by IOV (P-glycoprotein (P-gp) [3])
CCCCCCCCCCNCCN[C@@]1(C)C[C@H](O[C@H]2[C@H](Oc3c4cc5cc3Oc3ccc(cc3Cl)[C@@H](O)[C@@H](NC(=O)[C@@H](CC(C)C)NC)C(=O)N[C@@H](CC(N)=O)C(=O)N[C@H]5C(=O)N[C@H]3C(=O)N[C@H](C(=O)N[C@H](C(=O)O)c5cc(O)c(CNCP(=O)(O)O)c(O)c5-c5cc3ccc5O)[C@H](O)c3ccc(c(Cl)c3)O4)O[C@H](CO)[C@@H](O)[C@@H]2O)O[C@@H](C)[C@H]1O [telavancin, Telavancin] | 93 | 50 | 
CN[C@H](CC(C)C)C(=O)N[C@H]1C(=O)N[C@@H](CC(N)=O)C(=O)N[C@H]2C(=O)N[C@H]3C(=O)N[C@H](C(=O)N[C@H](C(=O)O)c4cc(O)cc(O)c4-c4cc3ccc4O)[C@H](O)c3ccc(c(Cl)c3)Oc3cc2cc(c3O[C@@H]2O[C@H](CO)[C@@H](O)[C@H](O)[C@H]2O[C@H]2C[C@](C)(N)[C@H](O)[C@H](C)O2)Oc2ccc(cc2Cl)[C@H]1O [vancomycin, vancomycin hydrochloride] | 50 |  | did not affect
